Experimental findings from patent US20170165283A1, “USE OF BETA-NICOTINAMIDE MONONUCLEOTIDE IN PREPARATION OF HEALTH-CARE PRODUCTS FOR PREVENTING AND TREATING ARTERIOSCLEROSIS AND CARDIO-CEREBROVASCULAR DISEASES, AND HEALTH-CARE PRODUCT CONTAINING THE SAME” (BONTAC BIO-ENGINEERING (SHENZHEN) CO., LTD, priority 2015, published 2017) are described below.

The subject of assay [1] is guinea pigs fed on high-fat diet (arteriosclerosis, lesion of the aorta). The assay can be described thus: Aortic lesion area (Sudan IV staining) in guinea pigs fed on high-fat diet. The class given is in vivo. The conditions noted are these: end of week 7, x±s. On the procedure:
70 SPF healthy guinea pigs (female:male 1:1) having a body weight of 250-300 g, were assigned to 7 groups at random, each group having 10 animals. The groups include (1) a normal control group, fed on basal diet, and allowed to free access to water during experiment;
(2) a high fat control group, fed on high-fat diet, and allowed to free access to water during experiment;
(3) a high fat prevention group, fed on high-fat diet, dosed with 50 mg NMN/kg body weight every day by gavage, and allowed to free access to water during experiment;
(4) a low-dose NMN group, fed on high-fat diet, dosed with 0.5 mg NMN/kg body weight every day by gavage from week 6, and allowed to free access to water during experiment;
(5) a medium-dose NMN group, fed on high-fat diet, dosed with 50 mg NMN/kg body weight every day by gavage from week 6, and allowed to free access to water during experiment;
(6) a high-dose NMN group, fed on high-fat diet, dosed with 100 mg NMN/kg body weight every day by gavage from week 6, and allowed to free access to water during experiment; and (7) a NMN+NR group, fed on high-fat diet, dosed with 50 mg NMN/kg body weight and 5 mg NR/kg body weight every day by gavage from week 6, and allowed to free access to water during experiment.
The formulation of the high-fat diet includes 75% basal diet, 5% cholesterol, and 20% lard oil.
At the end of week 7, all the experimental animals was fasted (allowed to access to water) for 12 hrs and then sacrificed. The aorta was isolated, dissected longitudinally along the midline of the anterior wall, and stained with Sudan IV. […] The lesion area pathologically measured and the total endangium area were quantified, and the degree of arteriosclerosis was expressed by percentages of the lesion area relative to the total endangium area of the aorta.
Statistical analysis: All the experimental data is analyzed by SPSS13.0 Statistics software. The measurement data is expressed as x±s, and t test is applied to check the statistical significance. Where P <0.05, there is statistical significance.

In assay [2] the test system is patients diagnosed as having cardio-cerebrovascular diseases resulting from arteriosclerosis. The assay can be described thus: Clinical trial in patients with cardio-cerebrovascular diseases resulting from arteriosclerosis. The class given is in vivo, human. The conditions noted are these: Group A: oral NMN 10 mg/kg body weight every day; for Total effective rate: excluding the withdrawing patients. Here is the method:
200 patients (male:female 1:1, aged 35-76 years and 55 years on average, and having a course of disease of the shortest 2 years, the longest 7 years, and 4.8 years on average) diagnosed as having cardio-cerebrovascular diseases resulting from arteriosclerosis were selected at random as subjects for clinical observation. The patients were assigned to a group A and a group B at random, each group having 100 patients.
Group A: The patients were orally administered with NMN at a dosage of 10 mg/kg body weight before or after meals every day, and the diet was controlled as desired.
Group B: The patients were orally administered with NMN at a dosage of 10 mg/kg body weight and with NR at a dosage of 2 mg/kg body weight before or after meals every day, and the diet was controlled as desired.
(1) Obvious effectiveness: The health is built up, the body is powerful, the blood lipid and blood pressure drop to normal levels, the palpitation, chest pain, chest tightness, headache, dizziness, decreased vision, decreased memory, insomnia and dreamful sleep, and other clinical symptoms are obvious alleviated.
(2) Effectiveness: The health is built up, the blood lipid and blood pressure drop slightly, the palpitation, chest pain, chest tightness, headache, dizziness, decreased vision, decreased memory, insomnia and dreamful sleep, and other clinical symptoms are alleviated to some extent.
(3) Ineffectiveness: There is no obvious improvement in the clinical symptoms.

Take `NC(=O)c1ccc[n+]([C@@H]2O[C@H](COP(=O)([O-])O)[C@@H](O)[C@H]2O)c1` [NMN, β-nicotinamide mononucleotide]: the “Rate of lesion area of aorta (%)” value in assay [1] (high fat prevention group: high-fat diet, 50 mg NMN/kg body weight every day by gavage, n=10) is 4 ± 1%; in assay [1] (high-dose group: high-fat diet, 100 mg NMN/kg body weight every day by gavage from week 6), 12 ± 3%; in assay [1] (low-dose group: high-fat diet, 0.5 mg NMN/kg body weight every day by gavage from week 6), 59 ± 4%; in assay [1] (medium-dose group: high-fat diet, 50 mg NMN/kg body weight every day by gavage from week 6), 23 ± 2%. Besides, the “Time after administration at which patients with mild disease are cured” value in assay [2] was 7 days. Moreover, in assay [2] (after 1 month), the “Patients showing obvious effectiveness” value is on record as 67 out of 100 patients. For the same compound, the Patients showing effectiveness in assay [2] (after 1 month, 100 patients) is 28 patients. The compound also had a Patients showing ineffectiveness in assay [2] (after 1 month, 100 patients) of 4 patients. The Total effective rate was 96% in assay [2] (after 1 month) and “up to 96%” in assay [2] (after 1 month, listed as β-nicotinamide mononucleotide).
